Results from patent EP1536235A2, “Method for detecting environmental pollution using 14-3-3 proteins as biomarkers” (MÜLLER, Werner E. G., priority 1998, dated 1999).

Legend:
14-3-3 [1] = assay: Northern blotting of 14-3-3 mRNA after exposure of the sponge; format: in vivo, G. cydonium; settings: PCB 118 2 µg/g, 17 beta-Östradiol 20 ng/g, alone or in combination; 17 beta-Östradiol = 100% reference value; incubation 3 or 6 days; not detectable without agents
Source text: (§1) Für eine Quantifizierung der mRNA für 14-3-3 mittels Northern-Blotting Verfahren werden Gensonden hergestellt, die von den konservierten Anfangsbereichen [aa45-aa57] bis zu den konservierten Endbereichen [aa214-aa234] des 14-3-3 Proteins reichen (ABB. 2). Als Methodik wird die PCR-Klonierung eingesetzt. Die erhaltenen APPROX 500 bp langen Sonden eignen sich erfahrungsgemäß gut für Northern-Blotting-Untersuchungen.
(§2) Die quantitative Auswertung der Signale kann zum Beispiel mit Hilfe des Chemilumineszenz-Verfahrens (Stanley und Kricka, Bioluminescence and chemiluminescence: current status. John Wiley & Sons, New York, 1990) in Verbindung mit einem Phospholmager (z. B. GS-525 Molecular Imager der Firma Bio-Rad) erfolgen; Dinatrium 2-Chlor-5-(4-methoxyspiro 1,2-dioxetane-3,2'-(5'-chlor)-tricyclo[3.3.1.13,7]decan-4-yl)phenyl-phosphat (CDP) wird hierfür als Substrat angewandt.
Durchfiihrung: • (a) Exposition von G. cydonium gegenüber PCB 118: 1 ml PCB 118 (0.1 mg/ml in Kornöl) wurde in […] Schwammgewebe injiziert. Die Proben wurden in Seewasser für bis zu 6 Tage in 20 1 Aquarien bei 17°C unter kontinuierlicher Belüftung inkubiert; das Wasser wurde einmal am Tag 2 gewechselt. Aliquote Teile des Gewebes (ungefähr je 200 mg) wurden zum Zeitpunkt Null oder nach einer Inkubationszeit von 0.5, 1, 3, 5 und 6 Tagen entnommen. […]

14-3-3 Protein = assay: ELISA quantification of 14-3-3 protein in liver after i.p. injection; settings: liver after 5 days, Kontrolle 0,12
Protocol: Vorgegangen wurde hierbei nach den Instruktionen des Herstellers. Überschüssige Maleimidgruppen auf den Platten wurden durch einstündige Inkubation der Platten mit einer Cysteinlösung (10 µg/ml) blockiert.
Die Durchführung erfolgt in folgenden Schritten: • Variante 1 • 1a. Inkubation der Streptavidin-beschichteten Mikrotiterplatten mit dem Biotingekoppelten Peptid. • 2a. Zugabe von 100 µl Extrakt aus den untersuchten Tiergeweben in die Wells nach Bindung des Peptids über Biotin und Streptavidin. Oder: • 1a. Inkubation der Extrakte aus den untersuchten Tiergeweben mit dem Biotingekoppelten Peptid. • 2a. Zugabe von 100 µl der Inkubationsmischungen nach Bindung des Biotin-Peptids an 14-3-3 in die Wells. • 3. Waschen. • 4. Quantifizierung der Peptid-14-3-3 Komplexe über markierte Antikörper. Als Markierung kann zum Beispiel die alkalische Phosphatase verwendet werden; als Substrat zum Nachweis dient dann 5-Brom-4-Chlor-3-Indolylphosphat/Nitroblau-Tetrazolium. • 5. Detektion mittels eines ELISA-Platten-Readers. • Variante 2 • 1. Zugabe von 100 µl Extrakt in die Wells der Mikrotiterplatten mit dem gekoppelten Peptid und Inkubation. • 2. Waschen. • 3. Quantifizierung der Peptid-14-3-3 Komplexe über markierte Antikörper (siehe Variante 1). • 4. Detektion mittels eines ELISA-Platten-Readers.
Die in Tabelle 1 angegebenen Mengen an PCB 77, PCB 118 und PCB 153 wurden nach Auflösung in Kornöl in Klieschen (Limanda limanda) injiziert. […] Nach den angegebenen Zeiträumen wurde den Tieren die Leber entnommen und sofort eingefroren. Die Bestimmung des Gehalts an 14-3-3 in den Lebern erfolgte nach Homogenisation durch Mörsern der gefrorenen Gewebeproben in dem dreifachen Volumen an Phosphat-Puffer mit 1 mM EDTA und 1 mM Phenylmethylsulfonylfluorid.

14-3-3 [2] = assay: Keeping experiments with PCB 118: 14-3-3 expression by Northern and Western blotting; format: in vivo, Geodia cydonium; settings: 2 µg PCB 118/g wet weight, 0,5 to 6 days; Northern (mRNA) and Western blotting (protein)
Source text: as §1, §2
Der Nachweis der Expression von 14-3-3 auf Protein-Ebene erfolgt mittels Antikörper. Entweder können kommerzielle (z. B. von der Firma Calbiochem/Oncogene) oder gegen das rekombinante Invertebraten-Protein 14-3-3 aus Geodia cydonium gezogene Antikörper eingesetzt werden. Zur Quantifizierung der 14-3-3 Proteine werden Western-Blots mit Extrakten des Bioindikators hergestellt. Die Signale können wieder unter Anwendung des Chemilumineszenz-Verfahrens quantifiziert werden. Die Gewebeextrakte können z. […]

[3] = i.p. 0.03 mg PCB pro kg Limanda limanda

Row | SMILES | Niveau der mRNA von 14-3-3 (14-3-3 [1]) [%] | 14-3-3 Protein (OD-Einheit) (14-3-3 Protein; [3]) | other results
1 | C[C@]12CC[C@@H]3c4ccc(O)cc4CC[C@H]3[C@@H]1CC[C@@H]2O [17 beta-Östradiol] | 100 | – | –
2 | Clc1ccc(-c2ccc(Cl)c(Cl)c2)cc1Cl [PCB77, PCB 77] | – | 0,97 OD-Einheit | –
3 | Clc1cc(Cl)c(-c2cc(Cl)c(Cl)cc2Cl)cc1Cl [PCB153, PCB 153] | – | 0,81 OD-Einheit | –
4 | Clc1ccc(-c2cc(Cl)c(Cl)cc2Cl)cc1Cl [PCB 118] | 30 | 0,74 OD-Einheit | Expression des 14-3-3-Gens (14-3-3 [2]): von nicht nachweisbar auf sehr hohe Werte induziert
5 | [Cd] [Cadmium] | – | – | 14-3-3 Protein (OD-Einheit) (14-3-3 Protein; Cadmium 0,01 mg/kg i.p.): 0,30 OD-Einheit; 14-3-3 Protein (OD-Einheit) (14-3-3 Protein; Cadmium 0,1 mg/kg i.p.): 0,98 OD-Einheit; 14-3-3 Protein (OD-Einheit) (14-3-3 Protein; Cadmium 0,03 mg/kg i.p.): 0,75 OD-Einheit
